Here are results for one compound from BindingDB's records for doi:10.1016/j.bmcl.2015.12.052 (Janssen Research and Development, 2016).

For this assay, the target named is T1, P2X purinoceptor 7 (Rattus norvegicus, UniProt Q64663).
T1 sequence (Q64663 whole entry): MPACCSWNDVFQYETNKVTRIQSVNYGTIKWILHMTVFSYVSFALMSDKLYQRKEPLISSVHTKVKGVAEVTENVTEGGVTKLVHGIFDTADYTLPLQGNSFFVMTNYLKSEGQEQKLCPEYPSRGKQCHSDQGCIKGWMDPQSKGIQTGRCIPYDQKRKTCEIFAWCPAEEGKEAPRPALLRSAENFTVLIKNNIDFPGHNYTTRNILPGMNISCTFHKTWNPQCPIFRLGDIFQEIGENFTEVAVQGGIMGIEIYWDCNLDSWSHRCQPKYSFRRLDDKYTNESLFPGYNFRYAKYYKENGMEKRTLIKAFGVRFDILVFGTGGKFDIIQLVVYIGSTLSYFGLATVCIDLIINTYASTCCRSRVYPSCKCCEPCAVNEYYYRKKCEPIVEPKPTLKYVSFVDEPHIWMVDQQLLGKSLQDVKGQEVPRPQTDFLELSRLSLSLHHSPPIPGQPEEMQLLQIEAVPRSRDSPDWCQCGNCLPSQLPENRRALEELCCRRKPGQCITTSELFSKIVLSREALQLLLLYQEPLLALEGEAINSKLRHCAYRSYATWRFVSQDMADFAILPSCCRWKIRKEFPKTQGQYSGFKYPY
Kind of assay: Antagonist activity at rat P2X7 receptor expressed in 1321N1 cells assessed as inhibition of Bz-ATP-induced Ca2+ flux after 30 mins by FLIPR assay. (In general: Calcium assays in cells follow changes in intracellular calcium, usually with a dye or a luminescent sensor.)

Structures are written as SMILES.

What is called IC50 is the concentration needed to halve the response being measured.

As to `C[C@H]1Cn2c(nnc2-c2cnccn2)C(=O)N1Cc1ccccc1` [US10047092, 79], the IC50 is more than 10 µM.
